Laboratory results: patent US20130158362A1 (INFACARE PHARMACEUTICAL CORPORATION, priority 2011, published 2013)

Tested on: total serum bilirubin (TSB)
Test: Phase 2b trial: total serum bilirubin (TSB), adjusted and unadjusted, change from baseline
Format: in vivo, human
Set-up: total serum bilirubin / total serum bilirubin, Delta (change from baseline) / Change from baseline of total serum bilirubin: unit not given here
Conditions: for change from baseline in adjusted TSB, LS mean difference versus placebo, MMRM / change from baseline in adjusted TSB, LS means (SEM), MMRM: observed case
Procedure: Three cohorts of subjects were recruited. This clinical study was designed to evaluate safety and efficacy parameters in each cohort.
Scheduled assessments (including TSB) occurred before treatment and at 0.75 and 2 hours (or 1.5 and 3 hours, depending on PK blood sampling assignment); 6, 12, 24, 48, and 72 hours; and 14 and 30 (except TSB) days after treatment or early termination.
The primary efficacy endpoint was the change in adjusted TSB from baseline to 48 hours after treatment. The adjusted TSB was a calculation of the percentage variance of the TSB level from the age specific threshold for PT initiation per the AAP Guidelines, i.e., an indication of the distance below the PT threshold by time.
The Secondary Efficacy Endpoints were the change from baseline in unadjusted TSB at 48 hours after treatment, change from baseline in adjusted and unadjusted TSB at various other time points after treatment, percent change from baseline in unadjusted TSB, proportion of subjects who require PT/exchange transfusion (ET), time to PT/ET, duration of PT and time to hospital discharge.
Intent-to-treat population (ITT): Defined as all subjects who were randomly assigned treatment in the clinical study, had received IMP, and had at least 1 post baseline TSB measurement during the first 48 hours after treatment. Subjects were summarized based on randomized treatment.
Analysis of Efficacy Parameters: The primary efficacy analysis applied the analysis of covariance (ANCOVA) method to determine if there was a significant difference between treatment groups in change in adjusted TSB levels from baseline to 48 hours post baseline after controlling for the effects of gestational age and adjusted baseline TSB levels. If assumptions of ANCOVA appeared to be violated, a Wilcoxon rank-sum test could be performed instead. Time-to-event variables were analyzed using the Kaplan-Meier method, and Kaplan-Meier survival curves were presented.

[1] = 4.5 mg/kg IM, 24 h, ITT, LOCF, ANCOVA
[2] = 4.5 mg/kg IM, 48 h/early termination, ITT, LOCF
[3] = 4.5 mg/kg IM, 48 h, ITT, LOCF, ANCOVA
[4] = 4.5 mg/kg IM, 48 hours, intent to treat, preliminary data
[5] = 4.5 mg/kg IM, 72 h, ITT, LOCF, ANCOVA
[6] = 4.5 mg/kg IM, 14 days/early termination, ITT, LOCF
[7] = 4.5 mg/kg IM, 14 days/early termination, ITT, LOCF, ANCOVA
[8] = 4.5 mg/kg versus the placebo group, 48 Hours/Early termination, PP Population, ANCOVA
[9] = 4.5 mg/kg, 48 Hours/Early termination, PP Population, LOCF
[10] = 4.5 mg/kg, 6 hrs, unadjusted TSB, ITT Population
[11] = 4.5 mg/kg, 12 hrs, unadjusted TSB, ITT Population
[12] = 4.5 mg/kg, 24 hrs, unadjusted TSB, ITT Population
[13] = 4.5 mg/kg, 48 hrs, unadjusted TSB, ITT Population
[14] = 4.5 mg/kg, baseline, PP Population
[15] = 4.5 mg/kg, baseline, unadjusted TSB, ITT Population

## tin IV mesoporphyrin IX dichloride [Stannsoporfin]
4.5 mg/kg IM, 24 h, ITT, LOCF
  change from baseline in adjusted TSB, Median: −11.15%
  change from baseline in unadjusted TSB, Mean (SD): 0.93 (1.990) mg/dL
  change from baseline in unadjusted TSB, Median: 1.20 mg/dL
  unadjusted TSB, Mean (SD): 10.52 (2.668) mg/dL
  unadjusted TSB, Median: 9.66 mg/dL
[1]
  change from baseline in adjusted TSB, LS mean (SEM): −11.59 (5.674) %
  change from baseline in adjusted TSB, LS mean difference versus placebo: −11.50%
  change from baseline in unadjusted TSB, LS Mean (SEM): 1.05 (0.665) mg/dL
  change from baseline in unadjusted TSB, LS Mean Difference versus placebo: -1.70 mg/dL
4.5 mg/kg IM, 24 h, ITT
  change from baseline in adjusted TSB, LS mean difference versus placebo, MMRM: −14.70%
  change from baseline in adjusted TSB, LS means (SEM), MMRM: −16.26 (5.495) %
[2]
  adjusted TSB, Mean (SD): −34.14 (14.733) %
  adjusted TSB, Median: −32.00%
4.5 mg/kg IM, 48 h, ITT, LOCF
  change from baseline in adjusted TSB, Mean (SD): −24.95 (19.261) %
  change from baseline in adjusted TSB, Median: −19.95%
  change from baseline in unadjusted TSB, Mean (SD): 0.80 (2.788) mg/dL
  change from baseline in unadjusted TSB, Median: 1.45 mg/dL
  unadjusted TSB, Mean (SD): 10.39 (2.650) mg/dL
  unadjusted TSB, Median: 10.35 mg/dL
[3]
  change from baseline in adjusted TSB, LS mean (SEM) (primary endpoint): −16.51 (6.925) %
  change from baseline in adjusted TSB, LS mean difference versus placebo: −14.93%
  change from baseline in unadjusted TSB, LS Mean (SEM): 1.60 (1.020) mg/dL
  change from baseline in unadjusted TSB, LS Mean Difference versus placebo: -2.63 mg/dL
4.5 mg/kg IM, 48 h, ITT, LOCF, ANCOVA, listed as stannsoporfin
  change from baseline in adjusted TSB, LS mean (SEM) (primary endpoint): 16.5%
4.5 mg/kg IM, 48 h, ITT
  change from baseline in adjusted TSB, LS mean difference versus placebo, MMRM: −20.66%
  change from baseline in adjusted TSB, LS means (SEM), MMRM: −27.34 (7.287) %
[4]
  total serum bilirubin: 10.39 ± 2.7
  total serum bilirubin, Delta (change from baseline): 0.80 ± 2.8
4.5 mg/kg IM, 48 hours, treated per protocol, preliminary data
  total serum bilirubin, Delta (change from baseline): 0.04 ± 3.1
4.5 mg/kg IM, 72 h/early termination, ITT, LOCF
  adjusted TSB, Mean (SD): −38.38 (16.637) %
4.5 mg/kg IM, 72 h, ITT, LOCF
  change from baseline in adjusted TSB, Mean (SD): −29.19 (19.225) %
  change from baseline in adjusted TSB, Median: −21.45%
  change from baseline in unadjusted TSB, Mean (SD): 0.15 (3.740) mg/dL
  change from baseline in unadjusted TSB, Median: 1.90 mg/dL
  unadjusted TSB, Mean (SD): 9.73 (3.672) mg/dL
  unadjusted TSB, Median: 11.15 mg/dL
[5]
  change from baseline in adjusted TSB, LS mean (SEM): −19.00 (8.184) %
  change from baseline in adjusted TSB, LS mean difference versus placebo: −14.25%
  change from baseline in unadjusted TSB, LS Mean (SEM): 1.38 (1.305) mg/dL
  change from baseline in unadjusted TSB, LS Mean Difference versus placebo: -3.57 mg/dL
[6]
  change from baseline in unadjusted TSB, Mean (SD): −4.28 (3.828) mg/dL
  change from baseline in unadjusted TSB, Median: -5.73 mg/dL
  unadjusted TSB, Mean (SD): 5.31 (4.596) mg/dL
  unadjusted TSB, Median: 2.98 mg/dL
[7]
  change from baseline in unadjusted TSB, LS Mean (SEM): −3.02 (1.524) mg/dL
  change from baseline in unadjusted TSB, LS Mean Difference versus placebo: -0.72 mg/dL
[8]
  48 Hours/Early termination change from baseline in unadjusted TSB, LS mean difference: -2.82 mg/dL
  P-value of LS mean difference, change from baseline in unadjusted TSB: 0.030
[9]
  48 Hours/Early termination change from baseline in unadjusted TSB, Max: 3.6 mg/dL
  48 Hours/Early termination change from baseline in unadjusted TSB, Mean (SD): 0.40 (3.111) mg/dL
  48 Hours/Early termination change from baseline in unadjusted TSB, Median: 0.70 mg/dL
  48 Hours/Early termination change from baseline in unadjusted TSB, Min: -3.4 mg/dL
  48 Hours/Early termination unadjusted TSB, Max: 13.4 mg/dL
  48 Hours/Early termination unadjusted TSB, Mean (SD): 9.88 (2.807) mg/dL
  48 Hours/Early termination unadjusted TSB, Median: 10.00 mg/dL
  48 Hours/Early termination unadjusted TSB, Min: 5.6 mg/dL
4.5 mg/kg, 48 Hours/Early termination, PP Population, LOCF, ANCOVA
  48 Hours/Early termination change from baseline in unadjusted TSB, LS mean (SEM): 1.11 (1.095) mg/dL
[10]
  6 hrs Percent Change from Baseline in TSB, Max: 26.4%
  6 hrs Percent Change from Baseline in TSB, Mean (SD): 17.33 (5.373) %
  6 hrs Percent Change from Baseline in TSB, Min: 10.7%
  6 hrs TSB, Max: 14.8 mg/dL
  6 hrs TSB, Mean (SD): 11.31 (2.237) mg/dL
  6 hrs TSB, Min: 7.6 mg/dL
[11]
  12 hrs Percent Change from Baseline in TSB, Max: 29.2%
  12 hrs Percent Change from Baseline in TSB, Mean (SD): 20.16 (6.326) %
  12 hrs Percent Change from Baseline in TSB, Min: 9.8%
  12 hrs TSB, Max: 14.8 mg/dL
  12 hrs TSB, Mean (SD): 11.54 (2.067) mg/dL
  12 hrs TSB, Min: 8.0 mg/dL
[12]
  24 hrs Percent Change from Baseline in TSB, Max: 43.8%
  24 hrs Percent Change from Baseline in TSB, Mean (SD): 10.75 (23.016) %
  24 hrs Percent Change from Baseline in TSB, Median: 12.15%
  24 hrs Percent Change from Baseline in TSB, Min: −14.8%
  24 hrs TSB, Max: 14.0 mg/dL
  24 hrs TSB, Mean (SD): 10.52 (2.668) mg/dL
  24 hrs TSB, Min: 7.7 mg/dL
[13]
  48 hrs Percent Change from Baseline in TSB, Max: 56.3%
  48 hrs Percent Change from Baseline in TSB, Mean (SD): 14.87 (33.167) %
  48 hrs Percent Change from Baseline in TSB, Min: −37.7%
  48 hrs TSB, Max: 13.4 mg/dL
  48 hrs TSB, Mean (SD): 10.69 (2.708) mg/dL
  48 hrs TSB, Min: 5.6 mg/dL
4.5 mg/kg, 14 days after treatment (text, not LOCF table)
  mean TSB levels: 2.94 mg/dL
[14]
  Baseline unadjusted TSB, Max: 12.8 mg/dL
  Baseline unadjusted TSB, Mean (SD): 9.47 (2.319) mg/dL
  Baseline unadjusted TSB, Median: 9.00 mg/dL
  Baseline unadjusted TSB, Min: 6.4 mg/dL
[15]
  Baseline TSB, Max: 12.8 mg/dL
  Baseline TSB, Mean (SD): 9.59 (1.911) mg/dL
  Baseline TSB, Min: 6.4 mg/dL
Bilirubin levels, FIG. 7
  time after administration at which an effect begins: 6 to 12 h
